Results on 5 molecules are retold here after publication PMC10650714, “Double Attack to Oxidative Stress in Neurodegenerative Disorders: MAO-B and Nrf2 as Elected Targets” (Molecules, 2023).

Where a name gives a salt, the structure may show the parent alone.

One series has as its target T1, recombinant hMAO-B (Homo sapiens, UniProt P27338).
T1 construct: purchased Fluka-Sigma-Aldrich s.r.l; (Italy); host or cells: Baculovirus infected BT1 cells
T1 sequence (P27338 1-520): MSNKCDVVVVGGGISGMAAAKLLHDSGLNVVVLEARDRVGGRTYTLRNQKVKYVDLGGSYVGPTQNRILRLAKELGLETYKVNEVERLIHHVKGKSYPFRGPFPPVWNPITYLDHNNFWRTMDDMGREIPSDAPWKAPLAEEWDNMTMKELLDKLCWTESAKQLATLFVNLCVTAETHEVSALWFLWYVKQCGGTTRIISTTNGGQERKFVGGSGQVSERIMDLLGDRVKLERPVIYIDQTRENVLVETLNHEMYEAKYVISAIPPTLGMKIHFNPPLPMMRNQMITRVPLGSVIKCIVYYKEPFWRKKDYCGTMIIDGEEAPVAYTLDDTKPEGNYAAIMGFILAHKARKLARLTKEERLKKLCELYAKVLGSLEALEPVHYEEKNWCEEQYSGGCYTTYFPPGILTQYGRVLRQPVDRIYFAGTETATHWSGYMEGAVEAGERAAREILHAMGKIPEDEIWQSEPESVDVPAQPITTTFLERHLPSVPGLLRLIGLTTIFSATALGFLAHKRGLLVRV
As to the kind of experiment: hMAO-B activity assay (kynuramine, fluorimetric). The note with it: for SI (selectivity index): calculated as hMAO-A Ki/hMAO-B Ki; for Ki: kynuramine [S] = 10 µM, pH 7.4, 37 °C, mean ± S.D., read-out: hMAO-B Ki. It counts as biochemical. The procedure: (§1) Human recombinant hMAO-A and hMAO-B expressed in Baculovirus infected BT1 cells (5 mg/mL) and horseradish peroxidases were purchased from Fluka-Sigma-Aldrich s.r.l. (Italy). A Cary Eclipse fluorimeter (Varian Inc., Palo Alto, CA, USA) was used for fluorescence measurements. […] At first, the peroxidase-coupled continuous assay that detect the H2O2 generation rate was considered. It uses the Amplex Red reagent as the fluorogenic substrate for horseradish peroxidase.
(§2) By applying this method, hMAO activity assays were performed in K/Pi 0.1 M, EDTA 1 mM (total volume: 200 μL; pH 7.4, T = 37 °C), in the presence and in absence of various concentrations of the different compounds (0.2–20 μM and 2–50 μM in the case of hMAO–B and hMAO-A, respectively).
(§3) MAOs stock solutions were diluted with assay buffer in the presence or absence of the tested compound to obtain a final concentration of 0.005 mg/mL for MAO-A and 0.010 mg/mL for MAO-B; then, kynuramine (10–300 μM final concentration) was added to the assay solution. After 45–60 min of incubation at 37 °C, the reaction was stopped by the addition of 2 M NaOH (80 μL) and 480 μL of distilled water. Kynuramine deaminated by MAO spontaneously cyclizes to provide 4-hydroxyquinoline, the amount of which was determined by the fluorescence intensity of the peak of its emission spectra (λexc = 330 nm and λem 330–530 nm). Then, the rate of reaction was calculated using a specific calibration curve (in the presence of the same amount of the tested compound) built with the standard 4-hydroxyquinoline.
(§4) Under these experimental conditions, the Michaelis–Menten equation for rate of reaction, can be simplified as follows: V ≈ (Vmax/KM) [E]0[S]0 [49]. In the presence of an inhibitor, one or both the kinetic parameters, KM and Vmax, might be affected by its presence, depending on the inhibition mechanism. In particular, in the presence of a reversible inhibitor, both the kinetic parameters could be affected, and the apparent kinetic parameter would then become: KM I = KM,0 (1 + [I]/Ki)/(1 + [I]/(αKi)), and VmaxI = Vmax0/(1 + [I]/(αKi)), where α is the factor indicating how much the dissociation constant of the enzyme-substrate-I complex is different from that of the enzyme–I complex (also named Ki). Consequently, the ratio of the initial rate of reaction in the absence (Vo) and in the presence (VI) of the tested compound (Vo/VI) can be simplified to the ratio of (Vmax/KM)o/(Vmax/KM)I ≈ (1 + [I]/Ki).
(§5) To study the mechanism of inhibition, the steady-state kinetic parameters (Vmax and Km) of MAO-A and MAO-B were determined by performing experiments at different substrate concentrations and in the absence and presence of different concentrations of the tested compound. Vmax and Km were calculated by fitting the Michaelis–Menten equation to the experimental data (initial rate of reactions vs. substrate concentrations), with Sigma Plot software, version 9.0 (Jandel Scientific, San Rafael, CA, USA).

For another series, the target named is T2, recombinant hMAO-A (Homo sapiens, UniProt P21397).
T2 construct: purchased Fluka-Sigma-Aldrich s.r.l; (Italy); host or cells: Baculovirus infected BT1 cells
T2 sequence (P21397 1-527): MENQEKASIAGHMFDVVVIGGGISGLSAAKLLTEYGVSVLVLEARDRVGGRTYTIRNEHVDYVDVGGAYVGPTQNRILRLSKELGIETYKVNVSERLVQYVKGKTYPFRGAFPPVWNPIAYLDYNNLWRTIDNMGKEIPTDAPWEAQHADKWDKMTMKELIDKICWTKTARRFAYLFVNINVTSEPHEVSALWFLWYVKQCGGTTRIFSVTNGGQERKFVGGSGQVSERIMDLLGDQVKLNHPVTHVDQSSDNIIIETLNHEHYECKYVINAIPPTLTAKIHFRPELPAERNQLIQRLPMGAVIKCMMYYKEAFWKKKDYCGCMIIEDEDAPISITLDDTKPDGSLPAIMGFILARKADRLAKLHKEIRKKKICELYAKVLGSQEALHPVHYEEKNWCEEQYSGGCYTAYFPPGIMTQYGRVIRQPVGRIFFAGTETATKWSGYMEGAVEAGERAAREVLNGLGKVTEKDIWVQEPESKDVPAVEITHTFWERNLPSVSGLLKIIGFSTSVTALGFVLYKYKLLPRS
In words: hMAO-A activity assay (kynuramine, fluorimetric). It counts as biochemical. The note with it: kynuramine [S] = 10 µM, pH 7.4, 37 °C; mean ± S.D.; read-out: hMAO-A Ki. The procedure:
as §1, §2, §3, §4, §5

The test system of series [1] is ROS production in HepG2 cells. As to the kind of experiment: Intracellular ROS generation rate (DCF-DA). The note with it: 5 µM, antimycin A 10 µM, 30 min. It counts as cell-based, human. The protocol:
Thus, on the basis of the hMAO-B inhibitory potency and on the Nrf2 nuclear translocation results, the most promising compounds 2 and 3 were chosen for the evaluation of their antioxidant activity in the human hepatic HepG2 cells, a valuable cellular system to assess antioxidant properties of the compounds [43, 44]. CAPE and pioglitazone were also tested as reference compounds. HepG2 cells were pre-loaded with dichlorofluorescein diacetate (DCF-DA), a fluorescent probe to detect ROS generation. […] Immediately, antimycin A (10 µM), an inhibitor of the complex III of the mitochondrial electron transport chain, was also added as an ROS inducer. The oxidation rate of DCF, that is, the generation rate of ROS, was detected for 30 min, and for each sample, the corresponding control was also run.
HepG2 cells (human hepatocellular carcinoma) were purchased from the American Type Culture Collection (ATCC HB-8065). Cells were grown in MEM (M0894, Merck Life Sciences S.r.l., Milan, Italy) supplemented with 2.2 g/L NaHCO3 (S5761, Merck Life Sciences S.r.l., Milan, Italy), 100 U/mL penicillin, 100 μg/mL streptomycin and 0.25 μg/mL amphotericin B (A5955, Merck Life Sciences S.r.l., Milan, Italy) and 10% foetal calf serum (F7524, Merck Life Sciences S.r.l., Milan, Italy). Cells were cultured at 37 °C in a humidified atmosphere incubator containing 5% carbon dioxide in air.
The intracellular production of ROS was detected via a fluorometric method using 2′,7′-dichlorofluorescein diacetate (D6883, Merck Life Sciences S.r.l., Milan, Italy) as probe. HepG2 cells (6 × 10^3/well) were seeded into a 96-well culture plate in 200 µL of a complete growth medium and incubated for 48 h in standard conditions. The medium was then removed, and cells were washed with 5 mM of PBS–glucose. Then, cells were loaded with 10 μM of 2′,7′-dichlorofluorescein diacetate in 5 mM of PBS–glucose at 37 °C in the dark for 20 min, washed with 5 mM of PBS–glucose, treated with the test compounds at indicated concentrations in 5 mM of PBS–glucose and then analysed. Fluorescence intensity was recorded for 30 min at λemx = 485 nm and λem = 527 nm, using a Victor X3 Multilabel plate reader (Perkin Elmer). The rate of ROS generation was calculated relative to untreated cells (controls) after subtraction of autofluorescence value. Results were presented as the mean values of at least three independent experiments performed with six replicates.

Series [2] deals with Nrf2 nuclear translocation in SH-SY5Y cells. As to the kind of experiment: Nrf2 nuclear translocation (Western blot of nuclear extracts). It counts as cell-based, human. The note with it: 5 μM, 3 h. The source says:
In physiological conditions, the repressor Keap1 traps Nrf2 at the cytosolic level, preventing the activation of Nrf2 pathway. The disruption of Keap1–Nrf2 interaction allows for Nrf2 nuclear translocation, thus resulting in the transcriptional activation of its target cytoprotective genes. […] We and others have previously developed several compounds bearing caffeic and ferulic fragments able to activate Nrf2 in terms of the up-regulation of Nrf2 expression, translocation into the nucleus and induction of the Nrf2-dependent defensive genes, with (pro)electrophilic features emerging as key players. Herein, to analyse the effect of the new molecules on the Nrf2 downstream cascade, the ability of compounds 1–5 to increase Nrf2 nuclear translocation was preliminary evaluated as a pivotal step in Nrf2 signalling activation (Figure 6). Based on MAO-B inhibitory potency and cell toxicity assay, compounds were studied in SH-SY5Y human neuroblastoma cells at the concentration of 5 μM. Given the high structural analogy with our derivatives, we selected the well-known Nrf2 inducer CAPE [37, 38] as the reference compound, and verified its ability to induce Nrf2 nuclear translocation at different concentrations, ranging from 5 µM to 50 µM in our experimental model (Figure S6). Nrf2 nuclear content was assessed via Western blot analysis. […] Consistently, data from literature highlight discrepancies about pioglitazone-mediated Nrf2 activation, indicating its ability to activate Nrf2 in longer timeframes and different in vitro and in vivo experimental conditions. […] The preliminary docking performed on human Keap-1 confirms the excellent positioning of compound 2 within the BTB domain pocket, where cysteine 151 is located (see Figure S5). […] Particularly, all these new molecules hold the characteristic (pro)electrophilic fragments, which however, in this case, resulted to be insufficient to activate Nrf2, as reported for other ferulic and caffeic derivatives. In this regard, optimal target interaction might play a major role, but further biological investigations are needed to fully clarify the mechanism of Nrf2 activation and the effect on the downstream expression of cytoprotective genes.
SH-SY5Y cells (5 × 106) were seeded in […] dishes and treated for 3 h with 5 μM compounds; afterward, the medium was removed, and cells were washed twice with ice-cold PBS. Cells were subsequently homogenized 15 times using a glass−glass Dounce homogenizer in 0.32 M sucrose, buffered with 20 mM Tris- HCl (pH 7.4), containing 2 mM EDTA, 0.5 mM EGTA, 50 mM β-mercaptoethanol and 20 μg/mL leupeptin, apotrinin and pepstatin. The homogenate was centrifuged at 300× g for 5 min to obtain the nuclear fraction. An aliquot of the nuclear fraction was used for protein assay via the Bradford method, whereas the remaining was boiled for 5 min after dilution with sample buffer and subjected to polyacrylamide gel electrophoresis and immunoblotting, as described.

With `COC(=O)/C=C/C(=O)Oc1ccc(CC2SC(=O)NC2=O)cc1` (centres unmarked) [Compound 1, 4-((2,4-Dioxothiazolidin-5-yl)methyl)phenyl Methyl Fumarate], at recombinant hMAO-B, the “decrease in hMAO-B inhibitory potency in comparison with pioglitazone” value was found to be 50 times, the “SI (selectivity index)” value was 8.0 and the Ki is 3.14 ± 0.2 µM. The Ki at recombinant hMAO-A was 25 ± 4 µM.

In turn, `COc1cc(/C=C/C(=O)Oc2ccc(CC3SC(=O)NC3=O)cc2)ccc1O` (centres unmarked) [Compound 3, 4-((2,4-Dioxothiazolidin-5-yl)methyl)phenyl (E)-3-(4-hydroxy-3-methoxyphenyl)acrylate] yielded a melting point of 155 to 156 °C. Moreover, on recombinant hMAO-B, the “SI (selectivity index)” value is given as 32.3 and the inhibition constant Ki came to 0.99 ± 0.15 µM. The inhibition constant (Ki) on recombinant hMAO-A stood at 32 ± 2 µM. In addition, the “effect on antimycin A-induced ROS” value in series [1] was “almost abolish the effect of antimycin A stimulus”.

In turn, `O=C(/C=C/c1ccc(O)c(O)c1)Nc1ccc(CC2SC(=O)NC2=O)cc1` (centres unmarked) [Compound 4, (E)-3-(3,4-Dihydroxyphenyl)-N-(4-((2,4-dioxothiazolidin-5-yl)methyl)phenyl)acrylamide] registered a melting point of 148 to 149 °C. Further, on recombinant hMAO-B, the “SI (selectivity index)” value is on record as 15.6 and the Ki stood at 2.5 ± 1 µM. Besides, the inhibitory constant (Ki) at recombinant hMAO-A came to 39 ± 5 µM. In addition, the Nrf2 nuclear translocation result in series [2] is reported as “promoted Nrf2 translocation at a lower extent”.

As for `COc1cc(/C=C/C(=O)Nc2ccc(CC3SC(=O)NC3=O)cc2)ccc1O` (centres unmarked) [Compound 5, (E)-N-(4-((2,4-Dioxothiazolidin-5-yl)methyl)phenyl)-3-(4-hydroxy-3-methoxyphenyl)acrylamide], the melting point was in the range of 151 to 152 °C. Besides, on recombinant hMAO-B, the “SI (selectivity index)” value is 14.2 and the inhibitory constant (Ki) came to 3.3 ± 1 µM. In addition, the Ki on recombinant hMAO-A worked out at 47 ± 4 µM. In addition, the Nrf2 nuclear translocation entry in series [2] is “promoted Nrf2 translocation at a lower extent”.

`COC(=O)/C=C/C(=O)Oc1ccc(CC2SC(=O)NC2=O)cc1` (centres unmarked) (as salt: fumarate) [Compound 1, 4-((2,4-Dioxothiazolidin-5-yl)methyl)phenyl Methyl Fumarate] had a melting point of 150 to 151 °C.
